# Reference: PMC2833271 (Neuropsychopharmacology : official publication of the …, 2009)
# Entries after “also recorded” stand apart in the source; their conditions may differ. Like-named read-outs stand apart in the source and are kept apart here.
# Assays:
# [1] = Adverse events in study subjects; format: in vivo, human; conditions: 15 normal men, oral CX157 20-80 mg
# [2] = target: T1, brain MAO-A (Homo sapiens, UniProt P21397); test: Emax model of brain MAO-A inhibition vs plasma CX157 concentration; format: in vivo
# T1 sequence (P21397 1-527): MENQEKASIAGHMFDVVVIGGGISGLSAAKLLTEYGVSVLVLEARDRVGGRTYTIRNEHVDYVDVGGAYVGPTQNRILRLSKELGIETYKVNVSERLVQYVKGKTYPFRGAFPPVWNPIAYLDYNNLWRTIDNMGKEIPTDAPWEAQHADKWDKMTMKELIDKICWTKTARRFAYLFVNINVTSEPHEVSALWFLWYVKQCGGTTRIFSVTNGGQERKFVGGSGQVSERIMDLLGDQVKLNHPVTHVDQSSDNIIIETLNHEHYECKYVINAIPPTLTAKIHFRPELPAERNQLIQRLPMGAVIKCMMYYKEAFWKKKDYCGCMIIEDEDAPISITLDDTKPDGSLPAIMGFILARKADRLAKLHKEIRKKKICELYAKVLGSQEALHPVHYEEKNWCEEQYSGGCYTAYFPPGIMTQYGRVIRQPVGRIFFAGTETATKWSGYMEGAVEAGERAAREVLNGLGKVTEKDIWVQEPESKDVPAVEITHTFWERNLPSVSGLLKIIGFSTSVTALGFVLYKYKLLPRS
# [3] = Plasma CX157 concentration and pharmacokinetics; format: in vivo, human; conditions: for concentration at 2 h / concentration at 5 h / concentration at 12 h / concentration at 8 h: oral; for Plasma CX157: single subject value
# [4] = system: MAO-A; conditions: in human brain; ref data on file, CeNeRx Biopharma, Cary, NC; cited from earlier work
# [5] = target: T1, brain MAO-A; test: PET imaging of [11C]clorgyline binding; format: in vivo
# [6] = target: T1, brain MAO-A; conditions: [11C]harmine PET; ref Bergström et al, 1997; cited from earlier work
smiles,measurement,setting,value
"O=S1(=O)c2ccc(F)cc2Oc2cc(OCC(F)(F)F)ccc21 [CX157, 3-fluoro-7-(2,2,2-trifluoroethoxy)phenoxathiin-10,10-dioxide]",overall incidence of AEs,[1],13.3%
same,serious adverse events or deaths,[1],No serious adverse events (AEs) or deaths occurred
same,EC50,[2],55.4 nM
same,n (exponent of sigmoid Emax model),"[2]; Emax model fit, all subjects, doses and time points",1.0
same,Emax,[2]; read-out: Emax (maximum inhibiting response),80.7%
same,concentration at 2 h,"[3]; male, human, plasma, 20 mg, Average plasma CX157, single dose 20 mg, n = 2, 2 h",18.5 ± 3.3 ng/mL
same,concentration at 5 h,"[3]; male, human, plasma, 20 mg, Average plasma CX157, single dose 20 mg, n = 2, 5 h",18.8 ± 1.1 ng/mL
same,concentration at 12 h,"[3]; male, human, plasma, 20 mg, Average plasma CX157, single dose 20 mg, n = 2, 12 h",12.4 ± 0.7 ng/mL
same,concentration at 2 h,"[3]; male, human, plasma, 40 mg, Average plasma CX157, multi-dose 40 mg BID, n = 3, 2 h",48.3 ± 11.3 ng/mL
same,concentration at 5 h,"[3]; male, human, plasma, 40 mg, Average plasma CX157, multi-dose 40 mg BID, n = 3, 5 h",34.1 ± 5.8 ng/mL
same,concentration at 8 h,"[3]; male, human, plasma, 40 mg, Average plasma CX157, multi-dose 40 mg BID, n = 3, 8 h",32.2 ± 4.4 ng/mL
same,concentration at 12 h,"[3]; male, human, plasma, 40 mg, Average plasma CX157, multi-dose 40 mg BID, n = 3, 12 h",23.1 ± 1.4 ng/mL
same,concentration at 2 h,"[3]; male, human, plasma, 40 mg, Average plasma CX157, single dose 40 mg, n = 3, 2 h",54.7 ± 18.5 ng/mL
same,concentration at 12 h,"[3]; male, human, plasma, 40 mg, Average plasma CX157, single dose 40 mg, n = 3, 12 h",6.8 ± 1.5 ng/mL
same,concentration at 2 h,"[3]; male, human, plasma, 60 mg, Average plasma CX157, single dose 60 mg, n = 3, 2 h",46.8 ± 84.4 ng/mL
same,concentration at 5 h,"[3]; male, human, plasma, 60 mg, Average plasma CX157, single dose 60 mg, n = 3, 5 h",31.6 ± 37.4 ng/mL
same,concentration at 8 h,"[3]; male, human, plasma, 60 mg, Average plasma CX157, single dose 60 mg, n = 3, 8 h",23.4 ± 8 ng/mL
same,concentration at 12 h,"[3]; male, human, plasma, 60 mg, Average plasma CX157, single dose 60 mg, n = 3, 12 h",17.6 ± 6.6 ng/mL
same,concentration at 2 h,"[3]; male, human, plasma, 80 mg, Average plasma CX157, single dose 80 mg, n = 4, 2 h",72.3 ± 58.8 ng/mL
same,concentration at 5 h,"[3]; male, human, plasma, 80 mg, Average plasma CX157, single dose 80 mg, n = 4, 5 h",48.6 ± 25 ng/mL
same,concentration at 8 h,"[3]; male, human, plasma, 80 mg, Average plasma CX157, single dose 80 mg, n = 4, 8 h",30.4 ± 5.2 ng/mL
same,half-life,"[3]; male, human, plasma, po",6 ± 3.4 h
same,Plasma CX157 range,"[3]; multi-dose 40 mg BID, n = 3, 2 h",24.5 to 45 ng/mL
same,Plasma CX157 range,"[3]; multi-dose 40 mg BID, n = 3, 5 h",13.1 to 24.7 ng/mL
same,Plasma CX157 range,"[3]; multi-dose 40 mg BID, n = 3, 8 h",10.8 to 19.5 ng/mL
same,Plasma CX157 range,"[3]; multi-dose 40 mg BID, n = 3, 12 h",9 to 11 ng/mL
same,Plasma CX157,"[3]; multi-dose 40 mg BID, 10 h",6.9 ng/mL
same,Plasma CX157 range,"[3]; single dose 20 mg, n = 2, 2 h",3.8 to 8.1 ng/mL
same,Plasma CX157 range,"[3]; single dose 20 mg, n = 2, 5 h",1.9 to 3.4 ng/mL
same,Plasma CX157 range,"[3]; single dose 20 mg, n = 2, 12 h",0.6 to 1.6 ng/mL
same,Plasma CX157 range,"[3]; single dose 40 mg, n = 3, 2 h",18.4 to 55.1 ng/mL
same,Plasma CX157 range,"[3]; single dose 40 mg, n = 3, 12 h",0.9 to 3.9 ng/mL
same,Average plasma CX157,"[3]; single dose 40 mg, n = 3, 24 h",2.8 ± 1.3 ng/mL
same,Plasma CX157 range,"[3]; single dose 40 mg, n = 3, 24 h",1.8 to 3.7 ng/mL
same,Plasma CX157,"[3]; single dose 40 mg, 5 h",8.4 ng/mL
same,Plasma CX157,"[3]; single dose 40 mg, 8 h",1.8 ng/mL
same,Plasma CX157 range,"[3]; single dose 60 mg, n = 3, 2 h",7.6 to 158 ng/mL
same,Plasma CX157 range,"[3]; single dose 60 mg, n = 3, 5 h",3.6 to 67.3 ng/mL
same,Plasma CX157 range,"[3]; single dose 60 mg, n = 3, 8 h",3.4 to 14.7 ng/mL
same,Plasma CX157 range,"[3]; single dose 60 mg, n = 3, 12 h",1.8 to 11.1 ng/mL
same,Plasma CX157 range,"[3]; single dose 80 mg, n = 4, 2 h",70.7 to 183 ng/mL
same,Plasma CX157 range,"[3]; single dose 80 mg, n = 4, 5 h",13.5 to 70.2 ng/mL
same,Plasma CX157 range,"[3]; single dose 80 mg, n = 4, 8 h",5.7 to 15.4 ng/mL
same,Plasma CX157,"[3]; single dose 80 mg, 12 h",16.6 ng/mL
same,MAO-A inhibiting activity,[4],3.3 nM
same,inhibition of MAO-A,"[5]; 40 mg CX157, first two subjects",~ 60%
same,inhibition of [11C]clorgyline binding to brain MAO-A,"[5]; 60 and 80 mg oral doses, 2 h after administration",47–72%
same,recovery of brain MAO-A activity,"[5]; 24 h post drug (single dose, 40 mg)",recovered completely; also recorded: Complete recovery to baseline values
same,inhibition at 40 mg,"[5]; read-out: % MAO-A inhibition (inhibition of [11C]clorgyline binding, λk3), multi-dose 40 mg BID 7 days, n = 3, 12 h post dose",23.1 ± 3.7%
same,inhibition at 40 mg,"[5]; read-out: % MAO-A inhibition (inhibition of [11C]clorgyline binding, λk3), multi-dose 40 mg BID, 10 h, single subject value",27.3%
same,"% MAO-A inhibition (inhibition of [11C]clorgyline binding, λk3)","[5]; single dose 20 mg, n = 2, 2 h after CX157",18.5 ± 10.6%
same,"% MAO-A inhibition (inhibition of [11C]clorgyline binding, λk3)","[5]; single dose 20 mg, n = 2, 5 h after CX157",18.8 ± 6.7%
same,"% MAO-A inhibition (inhibition of [11C]clorgyline binding, λk3)","[5]; single dose 20 mg, n = 2, 12 h after CX157",12.4 ± 10.8%
same,"% MAO-A inhibition (inhibition of [11C]clorgyline binding, λk3)","[5]; single dose 40 mg, n = 3, 2 h after CX157",54.7 ± 8.9%
same,"% MAO-A inhibition (inhibition of [11C]clorgyline binding, λk3)","[5]; single dose 40 mg, n = 3, 12 h after CX157",6.8 ± 14.6%
same,"% MAO-A inhibition (inhibition of [11C]clorgyline binding, λk3)","[5]; single dose 40 mg, n = 3, 24 h after CX157",−1.8 ± 0.7%
same,"% MAO-A inhibition (inhibition of [11C]clorgyline binding, λk3)","[5]; single dose 40 mg, 5 h after CX157, single subject value",34.5%
same,"% MAO-A inhibition (inhibition of [11C]clorgyline binding, λk3)","[5]; single dose 40 mg, 8 h after CX157, single subject value",6.5%
same,"% MAO-A inhibition (inhibition of [11C]clorgyline binding, λk3)","[5]; single dose 60 mg, n = 3, 5 h after CX157",31.6 ± 27.4%
same,"% MAO-A inhibition (inhibition of [11C]clorgyline binding, λk3)","[5]; single dose 60 mg, n = 3, 8 h after CX157",23.4 ± 30.0%
same,"% MAO-A inhibition (inhibition of [11C]clorgyline binding, λk3)","[5]; single dose 60 mg, n = 3, 12 h after CX157",17.6 ± 17.9%
same,"% MAO-A inhibition (inhibition of [11C]clorgyline binding, λk3)","[5]; single dose 80 mg, n = 4, 2 h after CX157",72.3 ± 8.7%
same,"% MAO-A inhibition (inhibition of [11C]clorgyline binding, λk3)","[5]; single dose 80 mg, n = 4, 5 h after CX157",48.6 ± 12.1%
same,"% MAO-A inhibition (inhibition of [11C]clorgyline binding, λk3)","[5]; single dose 80 mg, n = 4, 8 h after CX157",30.4 ± 8.9%
same,"% MAO-A inhibition (inhibition of [11C]clorgyline binding, λk3)","[5]; single dose 80 mg, 12 h after CX157, single subject value",43.1%
same,peak inhibition of [11C]clorgyline binding,"[5]; single doses, all dose groups except 20 mg, 2-h time point",47–72%
CCS(=O)(=O)Oc1ccc2c(C)c(C)c(=O)oc2c1 [esuprone],correlation between plasma drug levels and brain MAO-A inhibition,[6],no correlation observed
